IC50 data for 10 compounds are collected here from patent US9212182B2, “Bicyclic sulfonamide compounds as sodium channel inhibitors” (AMGEN INC., priority 2013, dated 2015).

Read-outs that look alike come from different tables or passages of the source. Bounds are passed on as bounds.

One data set has as its target Nav 1.7 (Homo sapiens (Human), UniProt Q15858). Briefly: in-vitro Nav 1.7 PX (IC50). The format is cell-based.
The next data set deals with Nav 1.5 (Homo sapiens (Human), UniProt Q14524). Nature of the data set: in-vitro Nav 1.5 PX (IC50). The following applies: read-out: Nav 1.5 PX IC50.
Chain of Nav 1.5 (Q14524 whole entry): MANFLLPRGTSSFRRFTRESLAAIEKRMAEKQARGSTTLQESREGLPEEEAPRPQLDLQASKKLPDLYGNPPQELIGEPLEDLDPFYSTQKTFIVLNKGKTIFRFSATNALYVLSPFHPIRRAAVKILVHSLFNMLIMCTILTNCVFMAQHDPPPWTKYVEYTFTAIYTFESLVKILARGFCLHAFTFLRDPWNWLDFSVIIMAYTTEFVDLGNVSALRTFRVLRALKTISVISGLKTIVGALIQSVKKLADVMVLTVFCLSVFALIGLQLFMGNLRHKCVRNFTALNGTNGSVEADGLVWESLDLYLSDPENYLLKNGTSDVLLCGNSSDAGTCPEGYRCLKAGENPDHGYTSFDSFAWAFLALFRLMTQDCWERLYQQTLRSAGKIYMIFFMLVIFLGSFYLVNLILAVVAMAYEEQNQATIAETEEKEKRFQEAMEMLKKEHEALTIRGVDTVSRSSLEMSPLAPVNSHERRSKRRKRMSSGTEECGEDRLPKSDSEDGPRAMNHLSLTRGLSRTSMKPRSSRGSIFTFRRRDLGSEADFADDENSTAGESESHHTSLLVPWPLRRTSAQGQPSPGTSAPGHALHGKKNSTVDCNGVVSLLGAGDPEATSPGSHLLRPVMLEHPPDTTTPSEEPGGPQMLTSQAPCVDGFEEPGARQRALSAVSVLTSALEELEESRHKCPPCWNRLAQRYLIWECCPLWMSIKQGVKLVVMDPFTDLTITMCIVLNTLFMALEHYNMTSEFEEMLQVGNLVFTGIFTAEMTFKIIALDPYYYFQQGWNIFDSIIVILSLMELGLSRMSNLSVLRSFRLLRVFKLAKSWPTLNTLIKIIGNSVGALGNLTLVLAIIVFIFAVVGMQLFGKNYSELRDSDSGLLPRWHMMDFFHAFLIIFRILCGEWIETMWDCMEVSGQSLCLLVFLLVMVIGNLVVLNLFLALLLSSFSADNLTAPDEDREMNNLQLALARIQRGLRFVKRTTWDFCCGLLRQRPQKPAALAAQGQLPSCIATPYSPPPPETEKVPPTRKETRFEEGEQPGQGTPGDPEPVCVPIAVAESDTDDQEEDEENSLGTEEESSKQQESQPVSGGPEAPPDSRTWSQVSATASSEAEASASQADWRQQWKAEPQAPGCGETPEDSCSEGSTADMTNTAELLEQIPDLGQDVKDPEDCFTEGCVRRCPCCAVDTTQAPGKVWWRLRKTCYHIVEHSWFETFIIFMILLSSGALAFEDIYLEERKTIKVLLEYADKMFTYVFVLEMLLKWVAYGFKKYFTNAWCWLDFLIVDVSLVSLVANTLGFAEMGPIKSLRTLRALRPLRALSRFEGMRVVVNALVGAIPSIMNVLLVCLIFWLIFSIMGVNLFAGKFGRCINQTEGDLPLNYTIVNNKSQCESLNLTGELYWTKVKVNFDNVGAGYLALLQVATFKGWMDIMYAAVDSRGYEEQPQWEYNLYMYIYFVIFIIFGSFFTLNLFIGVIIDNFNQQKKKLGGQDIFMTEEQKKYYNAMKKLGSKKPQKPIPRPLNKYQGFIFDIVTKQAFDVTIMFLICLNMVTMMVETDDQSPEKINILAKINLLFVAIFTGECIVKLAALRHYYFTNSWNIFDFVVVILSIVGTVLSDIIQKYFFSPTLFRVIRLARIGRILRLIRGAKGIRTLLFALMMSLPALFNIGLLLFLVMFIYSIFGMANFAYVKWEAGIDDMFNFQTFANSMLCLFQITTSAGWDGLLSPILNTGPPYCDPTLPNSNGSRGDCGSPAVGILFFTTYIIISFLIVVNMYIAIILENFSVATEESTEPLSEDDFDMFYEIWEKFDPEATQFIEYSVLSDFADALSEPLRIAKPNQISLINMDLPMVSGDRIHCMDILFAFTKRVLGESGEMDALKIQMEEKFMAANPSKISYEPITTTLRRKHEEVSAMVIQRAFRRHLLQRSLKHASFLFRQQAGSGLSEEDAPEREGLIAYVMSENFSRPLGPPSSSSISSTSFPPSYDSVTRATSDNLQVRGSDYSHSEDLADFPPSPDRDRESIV

Chain of Nav 1.7 (Q15858 whole entry): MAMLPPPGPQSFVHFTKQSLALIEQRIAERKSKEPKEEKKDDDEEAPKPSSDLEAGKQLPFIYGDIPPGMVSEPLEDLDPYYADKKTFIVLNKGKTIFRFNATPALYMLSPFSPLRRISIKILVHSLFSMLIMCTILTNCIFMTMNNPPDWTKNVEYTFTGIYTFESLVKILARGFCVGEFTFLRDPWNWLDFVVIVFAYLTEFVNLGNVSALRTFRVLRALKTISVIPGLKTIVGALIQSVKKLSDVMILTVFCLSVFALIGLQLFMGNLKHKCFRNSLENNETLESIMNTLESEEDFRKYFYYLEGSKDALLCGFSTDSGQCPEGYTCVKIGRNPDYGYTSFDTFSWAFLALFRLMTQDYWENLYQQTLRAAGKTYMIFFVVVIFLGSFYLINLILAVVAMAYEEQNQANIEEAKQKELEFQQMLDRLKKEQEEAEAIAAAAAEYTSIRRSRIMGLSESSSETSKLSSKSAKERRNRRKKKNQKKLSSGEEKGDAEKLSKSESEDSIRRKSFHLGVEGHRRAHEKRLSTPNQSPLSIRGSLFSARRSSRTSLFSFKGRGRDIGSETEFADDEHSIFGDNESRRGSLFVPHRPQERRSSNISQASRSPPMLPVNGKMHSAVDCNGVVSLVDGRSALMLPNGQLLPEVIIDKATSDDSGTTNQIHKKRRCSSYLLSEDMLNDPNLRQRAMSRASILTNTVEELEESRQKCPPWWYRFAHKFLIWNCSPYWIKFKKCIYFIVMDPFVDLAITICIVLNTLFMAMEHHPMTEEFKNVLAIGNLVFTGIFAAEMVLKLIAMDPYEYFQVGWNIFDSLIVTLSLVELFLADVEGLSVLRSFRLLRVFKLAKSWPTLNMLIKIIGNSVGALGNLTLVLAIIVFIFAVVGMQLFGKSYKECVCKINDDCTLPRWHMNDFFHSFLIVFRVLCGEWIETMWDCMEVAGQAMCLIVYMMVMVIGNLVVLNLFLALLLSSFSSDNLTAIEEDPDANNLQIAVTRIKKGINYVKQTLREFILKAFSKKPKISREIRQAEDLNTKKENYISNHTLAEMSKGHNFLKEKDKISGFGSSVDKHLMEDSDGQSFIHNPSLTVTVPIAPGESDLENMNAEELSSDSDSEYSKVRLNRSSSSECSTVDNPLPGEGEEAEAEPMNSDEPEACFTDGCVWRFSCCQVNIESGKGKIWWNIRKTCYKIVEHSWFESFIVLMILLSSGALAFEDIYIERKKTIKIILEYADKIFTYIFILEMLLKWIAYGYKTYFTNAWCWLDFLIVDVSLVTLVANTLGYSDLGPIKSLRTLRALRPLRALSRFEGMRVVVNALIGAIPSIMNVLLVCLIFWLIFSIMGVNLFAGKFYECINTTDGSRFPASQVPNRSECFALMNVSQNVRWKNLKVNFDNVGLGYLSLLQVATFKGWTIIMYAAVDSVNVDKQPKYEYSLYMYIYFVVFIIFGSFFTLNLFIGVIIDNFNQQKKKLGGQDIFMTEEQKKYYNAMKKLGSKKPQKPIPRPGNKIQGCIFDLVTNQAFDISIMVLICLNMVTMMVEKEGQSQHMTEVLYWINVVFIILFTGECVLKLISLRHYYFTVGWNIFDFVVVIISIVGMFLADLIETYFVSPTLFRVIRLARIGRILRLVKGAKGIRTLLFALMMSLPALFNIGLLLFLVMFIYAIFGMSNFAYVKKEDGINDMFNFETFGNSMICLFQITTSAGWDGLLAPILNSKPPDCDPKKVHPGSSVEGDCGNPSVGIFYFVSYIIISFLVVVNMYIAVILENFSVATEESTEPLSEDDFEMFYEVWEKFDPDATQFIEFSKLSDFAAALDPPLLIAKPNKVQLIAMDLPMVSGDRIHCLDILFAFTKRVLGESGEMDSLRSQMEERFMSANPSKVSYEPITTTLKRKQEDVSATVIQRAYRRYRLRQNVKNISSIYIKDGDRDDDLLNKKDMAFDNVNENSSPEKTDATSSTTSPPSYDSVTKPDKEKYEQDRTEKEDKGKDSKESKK

The IC50 is the point on the concentration scale where inhibition reaches its midpoint. In the case of `COc1cc(-c2cccc(F)c2)c(Cl)cc1-n1c(=O)ccc2cc(S(=O)(=O)Nc3nncs3)ccc21` (atropisomer, axis not shown; (P)) [Example 353, (P)-1-(2-chloro-3′-fluoro-5-methoxy-[1,1′-biphenyl]-4-yl)-2-oxo-N-(1,3,4-THIADIAZOL-2-yl)-1,2-dihydroquinoline-6-sulfonamide], the IC50 was 12 nM against Nav 1.7 and above 30000 nM on Nav 1.5.
As for `COc1cc(-c2ccc(Cl)c(C)c2)c(F)cc1-n1c(=O)ccc2cc(S(=O)(=O)Nc3ncns3)ccc21` [Example 1075, 1-(4′-chloro-2-fluoro-5-methoxy-3′-methyl-4-biphenylyl)-2-oxo-N-1,2,4-thiadiazol-5-yl-1,2-dihydro-6-quinolinesulfonamide], the IC50 was 4 nM against Nav 1.7 (in-vitro Nav 1.7 PX data) and above 10000 nM at Nav 1.5 (in-vitro Nav 1.5 PX data).
In the same order, the values of `COc1cc(-c2ccc(F)c(C)c2)c(F)cc1-n1c(=O)ccc2cc(S(=O)(=O)Nc3ccon3)c(F)cc21` [Example 981, 1-(2,4′-difluoro-5-methoxy-3′-methyl-4-biphenylyl)-7-fluoro-N-3-isoxazolyl-2-oxo-1,2-dihydro-6-quinolinesulfonamide] are 14 nM and 496 nM.
With `COc1cc(-c2cc(F)cc(Cl)c2)c(F)cc1-n1c(=O)ccc2cc(S(=O)(=O)Nc3ccon3)ccc21` (atropisomer, axis not shown; (P)) [Example 477, (P)-1-(3′-chloro-2,5′-difluoro-5-methoxy-4-biphenylyl)-N-3-isoxazolyl-2-oxo-1,2-dihydro-6-quinolinesulfonamide], the values for the IC50 against Nav 1.7 and on Nav 1.5 were 7 nM and above 30000 nM, respectively.
In the same order, the values of `COc1cc(-c2cccc(F)c2)c(Cl)cc1-n1c(=O)ccc2cc(S(=O)(=O)Nc3cccnn3)ccc21` (atropisomer, axis not shown; (P)) [Example 467, (P)-1-(2-chloro-3′-fluoro-5-methoxy-[1,1′-biphenyl]-4-yl)-2-oxo-N-(pyridazin-3-yl)-1,2-dihydroquinoline-6-sulfonamide] are 13 nM and above 30000 nM.
In the same order, the values of `COc1cc(-c2cc(F)cnc2OC)ccc1-n1c(=O)ccc2cc(S(=O)(=O)Nc3ccon3)ccc21` (atropisomer, axis not shown; (P)) [Example 581, (P)-1-(4-(5-fluoro-2-methoxy-3-pyridinyl)-2-methoxyphenyl)-N-3-isoxazolyl-2-oxo-1,2-dihydro-6-quinolinesulfonamide] are 102 nM and above 10000 nM.
As for `COc1cc(Cl)cc(-c2cc(OC)c(-n3c(=O)ccc4cc(S(=O)(=O)Nc5ncccn5)ccc43)cc2F)c1` [Example 924, 1-(3′-chloro-2-fluoro-5,5′-dimethoxy-4-biphenylyl)-2-oxo-N-2-pyrimidinyl-1,2-dihydro-6-quinolinesulfonamide], the results for the half-maximal inhibitory concentration (IC50) on Nav 1.7 (in-vitro Nav 1.7 PX data) and at Nav 1.5 (in-vitro Nav 1.5 PX data) were 14 nM and above 10000 nM, respectively.
In the case of `COc1cc(-c2cc(F)cc(Cl)c2)c(Cl)cc1-n1c(=O)ccc2cc(S(=O)(=O)Nc3ccon3)ccc21` (atropisomer, axis not shown; (P)) [Example 461, (P)-1-(2,3′-dichloro-5′-fluoro-5-methoxy-[1,1′-biphenyl]-4-yl)-N-(isoxazol-3-yl)-2-oxo-1,2-dihydroquinoline-6-sulfonamide], the figures for the IC50 against Nav 1.7 and at Nav 1.5 were 6 nM and above 30000 nM, respectively.
`COc1cc(-c2cc(OC)c(-n3c(=O)ccc4cc(S(=O)(=O)Nc5ccon5)ccc43)cc2F)ccc1C` [Example 698, 1-(2-fluoro-3′,5-dimethoxy-4′-methyl-4-biphenylyl)-N-3-isoxazolyl-2-oxo-1,2-dihydro-6-quinolinesulfonamide]: the IC50 on Nav 1.7 (in-vitro Nav 1.7 PX data) is 14 nM; on Nav 1.5 (in-vitro Nav 1.5 PX data), above 10000 nM.
As to `COc1cc(-c2cccc(C(F)(F)F)c2)c(Cl)cc1-n1c(=O)ccc2cc(S(=O)(=O)Nc3ccon3)ccc21` (atropisomer, axis not shown; (P)) [Example 533, (P)-1-(2-chloro-5-methoxy-3′-(trifluoromethyl)-[1,1′-biphenyl]-4-yl)-N-(isoxazol-3-yl)-2-oxo-1,2-dihydroquinoline-6-sulfonamide], the IC50 on Nav 1.7 is 4 nM; on Nav 1.5, above 30000 nM.
